Data published in patent US20240083872A1, “CYCLIC AMINE DERIVATIVES HAVING SEROTONIN RECEPTOR BINDING ACTIVITY” (Shionogi & Co., Ltd., priority 2020, published 2024).
Where two headings read alike, the source gives them in different places.

Assays:
[1] = target: human recombinant 5-HT2A receptor (Homo sapiens (Human), UniProt P28223); experiment: 5-HT2A receptor binding inhibition test ([3H]-Ketanserin); settings: Jump-In HEK cell membrane
Experimental: Test Example 1: 5-HT2A Receptor Binding Inhibition Test
(§1) (Each Experimental Condition)
Cell membrane: Jump-In HEK cell membrane (expressing human recombinant 5-HT2A receptor)
(§2) Assay buffer: Tris-HCl 50 mmol/L (pH 7.4) containing NaCl 120 mmol/L, MgCl2.6H2O 1 mmol/L, KCl 5 mmol/L, 0.1% BSA, and CaCl2 2 mmol/L
Radioactive ligand: [^3H]-Ketanserin around Kd value calculated by the following method
(§3) Non-specific ligand: Serotonin HCl
(§4) The Kd value was calculated when the lot of cell membrane was changed. In advance, 0.5 μL of a 1 mmol/L compound for non-specific binding calculation dissolved in DMSO or DMSO was dispensed into a microplate, and the cell membrane was diluted with an Assay buffer. The radioactive ligand solution was serially diluted and the count was confirmed with a liquid scintillator. Assay buffer containing diluted cell membrane was dispensed into a microplate at 50 μL/well. Then, the radioactive ligand solution was dispensed into a microplate at 50 μL/well, and the plate was sealed. It was allowed to stand at room temperature (25° C.) for 1.5 hours. During this period, 50 mmol/L Tris-HCl (pH 7.4) was dispensed into a GF/B UniFilter plate at 50 μL/well and allowed to stand at 4° C. for 1 hour or longer. After that, filtration was performed with Cell harvester (PerkinElmer). The radioactive ligand solution was dispensed into an empty well of the GF/B UniFilter plate at 10 μL/well. After the GF/B UniFilter plate was dried at room temperature, MicroScinti 20 was dispensed into the GF/B UniFilter plate at 50 μL/well, and the plate was sealed. The GF/B UniFilter plate was allowed to stand overnight at room temperature. The radioactivity of [^3H]-Ketanserin bound to the 5-HT2A receptor was measured using Microbeta2 (PerkinElmer) at a measurement time of 1 min/well. The Saturation curve was drawn from the measured value, and the Kd value was calculated from the slope of the Scatchard Plot.
(§5) (Binding Test of the Compound According to the Present Invention)
(§6) In advance, 0.5 μL of the compound solution dissolved in DMSO was dispensed into a microplate, and the cell membrane and the hot ligand were diluted with Assay buffer, respectively. Then, the Assay buffer containing the diluted cell membrane was dispensed into a microplate at 50 μL/well. Then, the radioactive ligand solution was dispensed into a microplate at 50 μL/well, and the plate was sealed. Then, it was allowed to stand at room temperature (25° C.) for 1.5 hours. During this period, 50 mmol/L Tris-HCl (pH 7.4) was dispensed into a GF/B UniFilter plate at 50 μL/well and allowed to stand at 4° C. for 1 hour or longer. After that, filtration was performed with Cell harvester (PerkinElmer). After the GF/B UniFilter plate was dried at room temperature, MicroScinti 20 was dispensed into the GF/B UniFilter plate at 50 μL/well, and the plate was sealed. The GF/B UniFilter plate was allowed to stand overnight at room temperature. The radioactivity of [^3H]-Ketanserin bound to the 5-HT2A receptor was measured using Microbeta2 (PerkinElmer) at a measurement time of 1 min/well. The non-specific binding was calculated from the radioactivity of [^3H]-Ketanserin in the presence of […] Serotonin HCl with the unlabeled ligand, and the total binding was calculated from the radioactivity of [^3H]-Ketanserin in the absence of the compound according to the present invention (Vehicle). Finally, the Ki value was calculated from the dose-response curve.
(§7) (The binding activity of the compound according to the present invention was calculated from the following binding inhibition rate (%).)
(§8) Inhibition rate (%)=[1−(c−a)/(b−a)]×100 • a; mean cpm of non-specific binding • b; mean cpm of total binding • c; cpm in the presence of the test compound

[2] = target: human recombinant 5-HT2C receptor (Homo sapiens (Human), UniProt P28335); experiment: 5-HT2C receptor binding inhibition test ([3H]-Mesulergine)
human recombinant 5-HT2C receptor, sequence (P28335 33-458): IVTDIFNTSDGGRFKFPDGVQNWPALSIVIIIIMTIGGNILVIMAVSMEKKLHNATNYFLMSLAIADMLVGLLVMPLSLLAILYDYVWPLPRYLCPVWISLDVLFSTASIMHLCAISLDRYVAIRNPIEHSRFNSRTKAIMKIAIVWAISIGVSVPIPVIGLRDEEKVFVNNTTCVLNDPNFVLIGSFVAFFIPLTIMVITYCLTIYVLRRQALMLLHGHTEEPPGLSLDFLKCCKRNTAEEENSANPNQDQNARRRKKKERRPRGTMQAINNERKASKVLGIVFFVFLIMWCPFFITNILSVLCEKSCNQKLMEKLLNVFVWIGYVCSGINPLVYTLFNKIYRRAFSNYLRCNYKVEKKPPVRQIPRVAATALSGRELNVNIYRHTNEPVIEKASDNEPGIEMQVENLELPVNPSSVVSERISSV
Experimental: as §1
Cell membrane: Jump-In HEK cell membrane (expressing human recombinant 5-HT2C receptor)
as §2
Radioactive ligand: [^3H]-Mesulergine around Kd value calculated by the following method
as §3
as §4, with “[…]” for “4°”, “The radioactivity of [^3H]-Ketanserin bound to the 5-HT2A receptor was measured using Microbeta2 (PerkinElmer) at a measurement time of 1 min/well.” left out
as §5
as §6, with “37° C.” for “room temperature (25° C.)”, “2” for “1.5”, “The radioactivity of [^3H]-Ketanserin bound to the 5-HT2A receptor was measured using Microbeta2 (PerkinElmer) at a measurement time of 1 min/well.” left out, “[^3H]-Mesulergine” for “[^3H]-Ketanserin”
as §7, §8

[3] = Jump-In HEK cell membrane, [3H]-Mesulergine, read-out: h-5-HT2C Ki
[4] = read-out: human serotonin 5-HT2A receptor binding activity, Ki value
[5] = Jump-In HEK cell membrane, [3H]-Mesulergine, read-out: human serotonin 5-HT2C receptor binding inhibitory activity, Ki value

human recombinant 5-HT2A receptor, sequence (P28223 whole entry): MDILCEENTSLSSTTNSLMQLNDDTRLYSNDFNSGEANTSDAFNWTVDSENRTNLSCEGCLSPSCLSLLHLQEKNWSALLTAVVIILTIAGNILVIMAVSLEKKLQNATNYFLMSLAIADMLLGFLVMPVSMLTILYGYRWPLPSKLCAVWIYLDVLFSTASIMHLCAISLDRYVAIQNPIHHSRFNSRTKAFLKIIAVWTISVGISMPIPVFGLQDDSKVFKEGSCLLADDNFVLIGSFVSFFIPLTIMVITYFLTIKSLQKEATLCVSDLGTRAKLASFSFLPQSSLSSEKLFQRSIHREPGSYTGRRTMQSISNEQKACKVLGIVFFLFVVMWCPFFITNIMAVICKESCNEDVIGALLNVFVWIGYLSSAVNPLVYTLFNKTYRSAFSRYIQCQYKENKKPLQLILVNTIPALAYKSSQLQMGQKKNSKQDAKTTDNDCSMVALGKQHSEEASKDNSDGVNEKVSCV

| Ki ([1]; read-out: h-5-HT2A Ki) [nM] | Ki [2, 3] [nM] | Compound | other results |
| --- | --- | --- | --- |
| < 10 | 10 to 100 | Cc1cccnc1CN(Cc1ccc(OCC(C)C)cc1)C(=O)NC1CCN(C)CC1 [Compound I-023] | – |
| – | – | Cc1nc(CN(Cc2ccc(OCC(C)C)cc2F)C(=O)NC2CCN(C)CC2)co1 [Compound I-117] | Ki [1, 4]: 0.82 nM; Ki [2, 5]: 0.315 nM |
| – | – | CN1CCC(NC(=O)N(Cc2ccc(C3CC3)cc2)Cc2ccn(C)n2)CC1 [Compound I-029] | Ki [1, 4]: 4.33 nM; Ki [2, 5]: 20.5 nM |
| – | – | CC(C)COc1ccc(CN(Cc2cnn(C)n2)C(=O)NC2CCN(C)CC2)cc1 [Compound I-101] | Ki [1, 4]: 0.683 nM; Ki [2, 5]: 0.461 nM |
| < 10 | 10 to 100 | CCN1CCC(NC(=O)N(Cc2ccc(OCC(C)C)cc2)Cc2ccn(C)n2)CC1 [Compound I-069] | – |
| < 10 | < 10 | CC(C)COc1ccc(CN(Cc2ccc(F)cn2)C(=O)NC2CCN(C)CC23CC3)cc1 (racemic) [Compound I-044] | – |
| < 10 | < 10 | CC(C)COc1ccc(CN(Cc2ccc(F)cn2)C(=O)N[C@H]2CCN(C)C[C@H]2F)cc1 [Compound I-050] | – |
| < 10 | 100 to 5000 | CC(C)COc1ccc(CN(Cc2cccn2C)C(=O)NC2CCN(C)CC2)cc1 [Compound I-009] | – |
| 100 to 5000 | 100 to 5000 | CN1CCC(NC(=O)N(Cc2ccc(OCCO)cc2)Cc2ccn(C)n2)CC1 [Compound I-011] | – |
| < 10 | 10 to 100 | CC(C)COc1ccc(CN(Cc2ccccn2)C(=O)NC2CCN(C)CC2)cc1 [Compound I-007] | – |
| 10 to 100 | 100 to 5000 | CC(C)COc1ccc(CN(Cc2ccn(C)n2)C(=O)NCC2CN(C)C2)cc1 [Compound I-059] | – |
| 10 to 100 | 10 to 100 | COc1ccc(CN(Cc2coc(C)n2)C(=O)OC2CCN(C)CC2)cc1 [Compound I-095] | – |
| < 10 | < 10 | CC(C)COc1ccc(CN(Cc2ccn(C)n2)C(=O)N[C@H]2CCN(C)C[C@H]2F)cc1 [Compound I-049] | – |
| – | – | CN1CCC(NC(=O)N(Cc2ccc3c(c2)CCO3)Cc2ccn(C)n2)CC1 [Compound I-015] | Ki [1, 4]: 45.5 nM |
| 10 to 100 | – | CC(C)COc1ccc(CN(Cc2cc(C(F)(F)F)ccn2)C(=O)NC2CCN(C)CC2)cc1 [Compound I-056] | – |
| – | – | CC(C)COc1ccc(CN(Cc2cnn(C)n2)C(=O)N[C@H]2CCN(C)CC23CC3)cc1 [Compound I-103] | Ki [1, 4]: 1.89 nM; Ki [2, 5]: 0.634 nM |
| < 10 | 10 to 100 | CC(C)COc1ccc(CN(Cc2ccn(C)n2)C(=O)NC2CCN(CC3CCC3)CC2)cc1 [Compound I-076] | – |
| 10 to 100 | 10 to 100 | CC(C)COc1ccc(CN(Cc2nn(C)cc2Cl)C(=O)NC2CCN(C)CC2)cc1 [Compound I-041] | – |
| 10 to 100 | – | CC(C)COc1ccc(CN(Cc2cc(-c3ccccc3)n(C)n2)C(=O)NC2CCN(C)CC2)cc1 [Compound I-055] | – |
| 100 to 5000 | – | CC(C)COc1ccc(CN(Cc2ccnn2C)C(=O)NC2CCN(C)CC2)cc1 [Compound I-053] | – |
| 100 to 5000 | – | CC(C)COc1ccc(CN(Cc2cccnc2)C(=O)NC2CCN(C)CC2)cc1 [Compound I-057] | – |
| 100 to 5000 | – | CC(C)COc1ccc(CN(Cc2ccn(C)n2)C(=O)NC2CCN(C3COC3)CC2)cc1 [Compound I-071] | – |
| 100 to 5000 | – | CNC(=O)CN1CCC(NC(=O)N(Cc2ccc(OCC(C)C)cc2)Cc2ccn(C)n2)CC1 [Compound I-072] | – |
| 10 to 100 | – | CC(C)COc1ccc(CN(Cc2ccncc2)C(=O)NC2CCN(C)CC2)cc1 [Compound I-052] | – |

| Compound | Ki ([1]; read-out: h-5-HT2A Ki) [nM] | Ki [2, 3] [nM] | other results |
| --- | --- | --- | --- |
| CCCCOc1ccc(CN(Cc2cnn(C)n2)C(=O)NC2CCN(C)CC2)cc1F [Compound I-100] | < 10 | < 10 | – |
| CCCCOc1ccc(CN(Cc2cnn(C)n2)C(=O)N[C@H]2CCN(C)CC23CC3)c(F)c1 [Compound I-097] | < 10 | < 10 | – |
| CCCCOc1ccc(CN(Cc2coc(C)n2)C(=O)N[C@H]2CCN(C)CC23CC3)cc1 [Compound I-089] | < 10 | < 10 | – |
| CC(C)COc1ccc(CN(Cc2ccn(C)n2)C(=O)NC2CCN(C)C3(CCC3)C2)cc1 (racemic) [Compound I-067] | < 10 | < 10 | – |
| CC(C)COc1ccc(CN(Cc2ccn(C)n2)C(=O)NC2CCN(C)C2)cc1 (racemic) [Compound I-054] | < 10 | – | – |
| CCCCOc1ccc(CN(Cc2coc(C)n2)C(=O)N[C@H]2CCN(C)CC23CC3)cc1F [Compound I-090] | < 10 | < 10 | – |
| CC(C)COc1ccc(CN(Cc2ccn(C)n2)C(=O)N[C@@H]2CCN(C)C[C@H]2C)cc1 [Compound I-065] | < 10 | < 10 | – |
| CCCc1ccc(CN(Cc2coc(C)n2)C(=O)NC2CCN(C)CC2)c(F)c1 [Compound I-114] | < 10 | < 10 | – |
| CC(C)COc1ccc(CN(Cc2ccn(C)c2)C(=O)OC2CCN(C)CC2)cc1 [Compound I-092] | < 10 | < 10 | – |
| CCCCOc1ccc(CN(Cc2cnn(C)n2)C(=O)N[C@H]2CCN(C)CC23CC3)cc1 [Compound I-098] | < 10 | < 10 | – |
| CC(C)COc1ccc(CN(Cc2coc(CF)n2)C(=O)NC2CCN(C)CC2)cc1 [Compound I-120] | < 10 | < 10 | – |
| CC(C)COc1ccc(CN(Cc2ccn(C)n2)C(=O)N[C@H]2C[C@H]3CCC[C@@H](C2)N3C)cc1 [Compound I-073] | 100 to 5000 | – | – |
| CC(C)COc1ccc(CN(Cc2ccn(C)n2)C(=O)NC23CCN(CC2)CC3)cc1 [Compound I-068] | 10 to 100 | – | Ki [2]: 100 to 5000 nM |
| CC(C)COc1ccc(CN(Cc2ccn(C)n2)C(=O)N[C@@H]2C[C@H]3CC[C@@H](C2)N3C)cc1 [Compound I-062] | 10 to 100 | – | – |
| CC(C)COc1ccc(CN(Cc2ccn(C)n2)C(=O)N[C@@H]2C[C@H]3CCC[C@@H](C2)N3C)cc1 [Compound I-074] | < 10 | – | – |
